The values below come from paper PMC4906375, “Contribution of Amphipathicity and Hydrophobicity to the Antimicrobial Activity and Cytotoxicity of β-Hairpin Peptides” (ACS Infectious Diseases, 2016).

In one test the test system is C. albicans ATCC 90028. In words: microbe, parasite or virus in culture. The test is classed as cell-based, Candida albicans. The note with it: Candida albicans, ATCC90028; C. albicans ATCC 90028; n = 4; read-out: MIC. As for the experimental part:
(§1) Both antibacterial and antifungal MIC assays were performed by a broth microdilution plate based method as per CLSI guidelines for antimicrobial susceptibility testing.[53],[54] […] Full assay details are included in the Supporting Information with a full list of strains tested in Table S1.
(§2) Antibacterial assay (Minimum Inhibitory Concentration [MIC]).
(§3) MIC assay was performed by a broth microdilution plate based method as per CLSI guidelines for antimicrobial susceptibility testing of aerobic bacteria.1 Compounds were prepared at 1.28 mg/mL solution in water. The tested strains, Table S1, were cultured in Luria broth (LB) (In Vitro Technologies, USB75852), at 37 °C overnight. A sample of culture was then diluted 40Pfold in fresh Muller Hinton broth (MHB) (Bacto laboratories, 211443) and incubated at 37 °C for 1.5P2 h. The compounds were serially diluted twoPfold across the wells, with compound concentrations ranging from 0.015 µg/mL to 512 µg/mL, plated in duplicate. The resultant midPlog phase cultures were diluted to the final concentration of 1×10^6 CFU/mL, then 50 µL was added to each well of the compoundP containing 96Pwell plates (Corning 3641, NonPbinding Surface [NBS]), giving a final compound concentration range of 0.008 µg/mL to 256 µg/mL and 5x10^5 CFU/mL. All the plates were covered and incubated at 37 °C for 18 h. MICs were determined visually, being defined as the lowest concentration showing no visible growth. Resazurin was added at 0.001% final concentration to each well and incubated for 2 h before MICs were rePread for confirmation using the colour change from blue to pink to indicate wells containing viable cells. The resazurin assay was added in some wells where some form of precipitate was present in otherwise clear wells, making it difficult to ascertain which wells had visible […]
(§4) Antifungal assay (Minimum Inhibitory Concentration [MIC]). MIC assay was performed by a broth microdilution plate based method as per CLSI guidelines for antimicrobial susceptibility testing.2 Fungi strains, Table S1, were cultured for 3 days on Yeast ExtractPPeptone Dextrose (YPD) (SigmaPAldrich, Y1500) agar at 30 °C. A yeast suspension of 1x10^6 to 5x10^6 CFU/mL was prepared from five colonies. These stock suspensions were diluted with Yeast Nitrogen Base (YNB) (Becton Dickinson, 233520) broth to a final concentration of 2.5 ×10^3 CFU/mL. All samples, compounds and standards were plated in 96Pwell plates (Corning 3641, NonPbinding Surface [NBS]), by adding 10 µL of 1.28 mg/mL stock solution to each well and 90 µL of media. Then, the samples were serial diluted (1:2) in 12 concentrations across the plate. The standard antifungal ranged from 256 […]
(§5) µg/mL to 0.12 µg/mL and compounds from 128 µg/mL to 0.06 µg/mL with final volumes of 50 µL per well, plated in duplicate. Then, 50 µL of the fungi suspension that was previously prepared in YNB broth to the final concentration of 2.5×10^3 CFU/mL, was added to each well of the compoundPcontaining plates, giving a final standard compound concentration range of 128 µg/mL to 0.06 µg/mL and tested compound from 64 µg/mL to 0.03 µg/mL. Plates were covered and incubated at 35 °C for 24 h. Candida albicans MICs were determined by measuring the absorbance at OD530. For Cryptococcus neoformans 10 µL of 0.06 % resazurin were added to the 24 h incubated plates. Then, these plates were incubated for another 3 h.
(§6) Cryptococcus neoformans MICs were determined by measuring the absorbance at OD570P600. […]

The subject of test [1] is C. neoformans ATCC 208821. Description: microbe, parasite or virus in culture. Conditions: Cryptococcus neoformans, ATCC208821; C. neoformans ATCC 208821; n = 4; read-out: MIC. The test is classed as cell-based, Cryptococcus neoformans. As for the experimental part: as §1, §2, §3, §4, §5, §6
In the next test the test system is B. subtilis ATCC 6051. In words: microbe, parasite or virus in culture. The class given is cell-based, Bacillus subtilis. The note with it: Bacillus subtilis, ATCC6051. The protocol:
as §1, §2, §3
(§7) Antifungal assay (Minimum Inhibitory Concentration [MIC]). MIC assay was performed by a broth microdilution plate based method as per CLSI guidelines for antimicrobial susceptibility testing.2 Fungi strains, Table S1, were cultured for 3 days on Yeast ExtractPPeptone Dextrose (YPD) (SigmaPAldrich, Y1500) agar at 30 °C. A yeast suspension of 1x10^6 to 5x10^6 CFU/mL was prepared from five colonies. These stock suspensions were diluted with Yeast Nitrogen Base (YNB) (Becton Dickinson, 233520) broth to a final concentration of 2.5 ×10^3 CFU/mL. All samples, compounds and standards were plated in 96Pwell plates (Corning 3641, NonPbinding Surface [NBS]), by adding 10 µL of 1.28 mg/mL stock solution to each well and 90 µL of media. Then, the samples were serial diluted (1:2) in 12 concentrations across the plate. The standard antifungal ranged from 256

The test system of test [2] is S. aureus ATCC 43300 (MRSA). In words: microbe, parasite or virus in culture. The class given is cell-based, Staphylococcus aureus. Conditions: Staphylococcus aureus. The protocol: as §1, §2, §3, §7
The subject of a further test is K. pneumoniae ATCC 13883. The class given is cell-based, Klebsiella pneumoniae. Conditions: K. pneumoniae ATCC 13883; n = 4. The protocol: as §1, §2, §3, §7
The test system of test [3] is K. pneumoniae ATCC 700603 (MDR). The class given is cell-based, Klebsiella pneumoniae. The note with it: n = 4. As for the experimental part:
as §1, §2, §3, §7

The test system of test [4] is K. pneumoniae BAA 2146 (NDM-1 pos). The class given is cell-based, Klebsiella pneumoniae. Conditions: n = 4. As for the experimental part:
as §1, §2, §3, §7

Another test deals with A. baumannii ATCC 19606. The test is classed as cell-based, Acinetobacter baumannii. Conditions: A. baumannii ATCC 19606; n = 4. The protocol:
as §1, §2, §3, §7

The next test concerns P. aeruginosa ATCC 27853. The class given is cell-based, Pseudomonas aeruginosa. The note with it: P. aeruginosa ATCC 27853; n = 4. The protocol:
as §1, §2, §3, §7

A further test deals with E. coli MB 4902 (ΔlpxC). The class given is cell-based, Escherichia coli. Conditions: n = 4. The protocol:
as §1, §2, §3, §7

The subject of test [5] is E. coli ATCC 700926 (K12). The test is classed as cell-based, Escherichia coli. Conditions: E. coli ATCC 700926 (K12); n = 4. As for the experimental part: as §1, §2, §3, §7
Test [6] concerns E. coli ATCC 25922 (control strain). The test is classed as cell-based, Escherichia coli. The note with it: E. coli ATCC 25922 (control strain); n = 4. The protocol:
as §1, §2, §3, §7

≈ marks a conversion by molar mass, not a printed value.

On to `C[C@@H]1[C@H](O)[C@@H](C)/C=C/C=C/C=C/C=C/C=C/C=C/C=C/[C@H](O[C@@H]2O[C@H](C)[C@@H](O)[C@H](N)[C@@H]2O)C[C@@H]2O[C@](O)(C[C@@H](O)C[C@@H](O)[C@H](O)CC[C@@H](O)C[C@@H](O)CC(=O)O[C@H]1C)C[C@H](O)[C@H]2C(=O)O` [amphotericin B, reference compound], for which the MIC with C. albicans ATCC 90028 was determined as 0.06 µg/mL (≈ 0.0649 µM); in [1] it was 0.015 µg/mL (≈ 0.0162 µM).

Turning to `CN[C@H](CC(C)C)C(=O)N[C@H]1C(=O)N[C@@H](CC(N)=O)C(=O)N[C@H]2C(=O)N[C@H]3C(=O)N[C@H](C(=O)N[C@H](C(=O)O)c4cc(O)cc(O)c4-c4cc3ccc4O)[C@H](O)c3ccc(c(Cl)c3)Oc3cc2cc(c3O[C@@H]2O[C@H](CO)[C@@H](O)[C@H](O)[C@H]2O[C@H]2C[C@](C)(N)[C@H](O)[C@H](C)O2)Oc2ccc(cc2Cl)[C@H]1O` [vancomycin, reference compound], the values for the MIC (in the test on B. subtilis ATCC 6051; in [2]) were 0.25 µg/mL (≈ 0.173 µM) and 1 µg/mL (≈ 0.69 µM), respectively.

As for colistin [reference compound], the MIC with K. pneumoniae ATCC 13883 stood at 0.5 µg/mL; in [3], 0.125 µg/mL; in [4], 0.03 µg/mL; in the test with A. baumannii ATCC 19606, 0.03 µg/mL; against P. aeruginosa ATCC 27853, 0.25 µg/mL; with E. coli MB 4902 (ΔlpxC), 9 ng/mL. In addition, the MIC in test [5] and in test [6] was 0.03 µg/mL throughout.
